Data as given in patent US11306117B2, “Whitening composition containing novel quercetin-based compound” (AMOREPACIFIC CORPORATION, priority 2017, dated 2022).

Test system: healthy adult examinees
Experiment: HRIPT (Human repeated insult patch tests), skin accumulated stimulus
Type: in vivo
Design: key to skin reactivity (ICDRG criteria): −: negative (no response); ±: doubtful or slight erythema, etc.; +: weak reaction (which is accompanied with no phlyctenule), erythema, papule; ++: severe reaction (which is accompanied with phylctenule), erythema, papule, phlyctenule; +++: strong reaction, bullae reaction
Settings: for average reactivity: 9 patches, 15 examinees; for Number of examinees who exhibited ±, +, or ++ reactivity 1st: 1st patch; for Number of examinees who exhibited ±, +, or ++ reactivity 2nd: 2nd patch; for Number of examinees who exhibited ±, +, or ++ reactivity 3rd: 3rd patch; for Number of examinees who exhibited ±, +, or ++ reactivity 4th: 4th patch; for Number of examinees who exhibited ±, +, or ++ reactivity 5th: 5th patch; for Number of examinees who exhibited ±, +, or ++ reactivity 6th: 6th patch; for Number of examinees who exhibited ±, +, or ++ reactivity 7th: 7th patch; for Number of examinees who exhibited ±, +, or ++ reactivity 8th: 8th patch; for Number of examinees who exhibited ±, +, or ++ reactivity 9th: 9th patch
Method: HRIPT (Human repeated insult patch tests) was conducted in order to identify skin accumulated stimulus of quercetin3-O-[3-O″-(E)-p-coumaroyl][β-D-glucopyranosyl-(1→3)-O-α-L-rhamnopyranosyl-(1→6)-O-β-D-glucopyranoside] and quercetin3-O-[3-O″-(E)-p-coumaroyl][α-L-rhamnopyranosyl-(1→6)-O-β-D-glucopyranoside]and to calculate the concentration range that can be used in skin.
Specifically, 15 healthy adult examinees were randomly selected, and test compositions in which the compounds were respectively comprised in an amount of 0.5 wt. %, 1 wt. %, and 3 wt. % (the compositions for skin, comprising an emulsifying agent, a stabilizer, purified water, etc. in addition to the compounds) were dropped in the amount of 20 μl per chamber (IQ chamber, Epitest Ltd, Finland), and patched on the right site of the upper back of the examinees, and then, after 24 hours, the patch was replaced with a new patch. A total of 9 patches were conducted, three times a week for total 3 weeks, in such manner, the skin reactions before and after patch were examined every time, and the skin reactions until 48 hours after removing the final patch were observed, and the average reactivity was observed.
The skin reaction was determined according to the criteria of International Contact Dermatitis Research Group (ICDRG). In the above table, “New Material 31” refers to quercetin3-O-[3-O″-(E)-p-coumaroyl][β-D-glucopyranosyl-(1→3)-O-α-L-rhamnopyranosyl-(1→6)-O-β-D-glucopyranoside], and “New Material 32” refers to quercetin3-O-[3-O″-(E)-p-coumaroyl][α-L-rhamnopyranosyl-(1→6)-O-β-D-glucopyranoside].

**Q.** Which results are given for `C[C@@H]1O[C@@H](OC[C@H]2O[C@@H](Oc3c(-c4ccc(O)c(O)c4)oc4cc(O)cc(O)c4c3=O)[C@H](O)[C@@H](OC(=O)/C=C/c3ccc(O)cc3)[C@@H]2O)[C@H](O)[C@H](O[C@@H]2O[C@H](CO)[C@@H](O)[C@H](O)[C@H]2O)[C@H]1O` [New Material 31, quercetin3-O-[3-O″-(E)-p-coumaroyl][β-D-glucopyranosyl-(1→3)-O-α-L-rhamnopyranosyl-(1→6)-O-β-D-glucopyranoside]]?
**A.** average reactivity (0.5 wt.% in test composition): 0; skin reactivity (ICDRG criteria) (0.5 wt.%, 1 wt.% and 3 wt.%, 9 patches in 3 weeks): −; Number of examinees who exhibited ±, +, or ++ reactivity 1st (0.5 wt.%, line 1 of 3 (±)): 0 number; Number of examinees who exhibited ±, +, or ++ reactivity 1st (0.5 wt.%, line 2 of 3 (+)): 0 number; Number of examinees who exhibited ±, +, or ++ reactivity 1st (0.5 wt.%, line 3 of 3 (++)): 0 number; Number of examinees who exhibited ±, +, or ++ reactivity 2nd (0.5 wt.%, line 1 of 3 (±)): 0 number; Number of examinees who exhibited ±, +, or ++ reactivity 2nd (0.5 wt.%, line 2 of 3 (+)): 0 number; Number of examinees who exhibited ±, +, or ++ reactivity 2nd (0.5 wt.%, line 3 of 3 (++)): 0 number; Number of examinees who exhibited ±, +, or ++ reactivity 3rd (0.5 wt.%, line 1 of 3 (±)): 0 number; Number of examinees who exhibited ±, +, or ++ reactivity 3rd (0.5 wt.%, line 2 of 3 (+)): 0 number; Number of examinees who exhibited ±, +, or ++ reactivity 3rd (0.5 wt.%, line 3 of 3 (++)): 0 number; Number of examinees who exhibited ±, +, or ++ reactivity 4th (0.5 wt.%, line 1 of 3 (±)): 0 number; Number of examinees who exhibited ±, +, or ++ reactivity 4th (0.5 wt.%, line 2 of 3 (+)): 0 number; Number of examinees who exhibited ±, +, or ++ reactivity 4th (0.5 wt.%, line 3 of 3 (++)): 0 number; Number of examinees who exhibited ±, +, or ++ reactivity 5th (0.5 wt.%, line 1 of 3 (±)): 0 number; Number of examinees who exhibited ±, +, or ++ reactivity 5th (0.5 wt.%, line 2 of 3 (+)): 0 number; Number of examinees who exhibited ±, +, or ++ reactivity 5th (0.5 wt.%, line 3 of 3 (++)): 0 number; Number of examinees who exhibited ±, +, or ++ reactivity 6th (0.5 wt.%, line 1 of 3 (±)): 0 number; Number of examinees who exhibited ±, +, or ++ reactivity 6th (0.5 wt.%, line 2 of 3 (+)): 0 number; Number of examinees who exhibited ±, +, or ++ reactivity 6th (0.5 wt.%, line 3 of 3 (++)): 0 number; Number of examinees who exhibited ±, +, or ++ reactivity 7th (0.5 wt.%, line 1 of 3 (±)): 0 number; Number of examinees who exhibited ±, +, or ++ reactivity 7th (0.5 wt.%, line 2 of 3 (+)): 0 number; Number of examinees who exhibited ±, +, or ++ reactivity 7th (0.5 wt.%, line 3 of 3 (++)): 0 number; Number of examinees who exhibited ±, +, or ++ reactivity 8th (0.5 wt.%, line 1 of 3 (±)): 0 number; Number of examinees who exhibited ±, +, or ++ reactivity 8th (0.5 wt.%, line 2 of 3 (+)): 0 number; Number of examinees who exhibited ±, +, or ++ reactivity 8th (0.5 wt.%, line 3 of 3 (++)): 0 number; Number of examinees who exhibited ±, +, or ++ reactivity 9th (0.5 wt.%, line 1 of 3 (±)): 0 number; Number of examinees who exhibited ±, +, or ++ reactivity 9th (0.5 wt.%, line 2 of 3 (+)): 0 number; Number of examinees who exhibited ±, +, or ++ reactivity 9th (0.5 wt.%, line 3 of 3 (++)): 0 number; average reactivity (1 wt.% in test composition): 0; Number of examinees who exhibited ±, +, or ++ reactivity 1st (1 wt.%, line 1 of 3 (±)): 0 number; Number of examinees who exhibited ±, +, or ++ reactivity 1st (1 wt.%, line 2 of 3 (+)): 0 number; Number of examinees who exhibited ±, +, or ++ reactivity 1st (1 wt.%, line 3 of 3 (++)): 0 number; Number of examinees who exhibited ±, +, or ++ reactivity 2nd (1 wt.%, line 1 of 3 (±)): 0 number; Number of examinees who exhibited ±, +, or ++ reactivity 2nd (1 wt.%, line 2 of 3 (+)): 0 number; Number of examinees who exhibited ±, +, or ++ reactivity 2nd (1 wt.%, line 3 of 3 (++)): 0 number; Number of examinees who exhibited ±, +, or ++ reactivity 3rd (1 wt.%, line 1 of 3 (±)): 0 number; Number of examinees who exhibited ±, +, or ++ reactivity 3rd (1 wt.%, line 2 of 3 (+)): 0 number; Number of examinees who exhibited ±, +, or ++ reactivity 3rd (1 wt.%, line 3 of 3 (++)): 0 number; Number of examinees who exhibited ±, +, or ++ reactivity 4th (1 wt.%, line 1 of 3 (±)): 0 number; Number of examinees who exhibited ±, +, or ++ reactivity 4th (1 wt.%, line 2 of 3 (+)): 0 number; Number of examinees who exhibited ±, +, or ++ reactivity 4th (1 wt.%, line 3 of 3 (++)): 0 number; Number of examinees who exhibited ±, +, or ++ reactivity 5th (1 wt.%, line 1 of 3 (±)): 0 number; Number of examinees who exhibited ±, +, or ++ reactivity 5th (1 wt.%, line 2 of 3 (+)): 0 number; Number of examinees who exhibited ±, +, or ++ reactivity 5th (1 wt.%, line 3 of 3 (++)): 0 number; Number of examinees who exhibited ±, +, or ++ reactivity 6th (1 wt.%, line 1 of 3 (±)): 0 number; Number of examinees who exhibited ±, +, or ++ reactivity 6th (1 wt.%, line 2 of 3 (+)): 0 number; Number of examinees who exhibited ±, +, or ++ reactivity 6th (1 wt.%, line 3 of 3 (++)): 0 number; Number of examinees who exhibited ±, +, or ++ reactivity 7th (1 wt.%, line 1 of 3 (±)): 0 number; Number of examinees who exhibited ±, +, or ++ reactivity 7th (1 wt.%, line 2 of 3 (+)): 0 number; Number of examinees who exhibited ±, +, or ++ reactivity 7th (1 wt.%, line 3 of 3 (++)): 0 number; Number of examinees who exhibited ±, +, or ++ reactivity 8th (1 wt.%, line 1 of 3 (±)): 0 number; Number of examinees who exhibited ±, +, or ++ reactivity 8th (1 wt.%, line 2 of 3 (+)): 0 number; Number of examinees who exhibited ±, +, or ++ reactivity 8th (1 wt.%, line 3 of 3 (++)): 0 number; Number of examinees who exhibited ±, +, or ++ reactivity 9th (1 wt.%, line 1 of 3 (±)): 0 number; Number of examinees who exhibited ±, +, or ++ reactivity 9th (1 wt.%, line 2 of 3 (+)): 0 number; Number of examinees who exhibited ±, +, or ++ reactivity 9th (1 wt.%, line 3 of 3 (++)): 0 number; average reactivity (3 wt.% in test composition): 0; Number of examinees who exhibited ±, +, or ++ reactivity 1st (3 wt.%, line 1 of 3 (±)): 0 number; Number of examinees who exhibited ±, +, or ++ reactivity 1st (3 wt.%, line 2 of 3 (+)): 0 number; Number of examinees who exhibited ±, +, or ++ reactivity 1st (3 wt.%, line 3 of 3 (++)): 0 number; Number of examinees who exhibited ±, +, or ++ reactivity 2nd (3 wt.%, line 1 of 3 (±)): 0 number; Number of examinees who exhibited ±, +, or ++ reactivity 2nd (3 wt.%, line 2 of 3 (+)): 0 number; Number of examinees who exhibited ±, +, or ++ reactivity 2nd (3 wt.%, line 3 of 3 (++)): 0 number; Number of examinees who exhibited ±, +, or ++ reactivity 3rd (3 wt.%, line 1 of 3 (±)): 0 number; Number of examinees who exhibited ±, +, or ++ reactivity 3rd (3 wt.%, line 2 of 3 (+)): 0 number; Number of examinees who exhibited ±, +, or ++ reactivity 3rd (3 wt.%, line 3 of 3 (++)): 0 number; Number of examinees who exhibited ±, +, or ++ reactivity 4th (3 wt.%, line 1 of 3 (±)): 0 number; Number of examinees who exhibited ±, +, or ++ reactivity 4th (3 wt.%, line 2 of 3 (+)): 0 number; Number of examinees who exhibited ±, +, or ++ reactivity 4th (3 wt.%, line 3 of 3 (++)): 0 number; Number of examinees who exhibited ±, +, or ++ reactivity 5th (3 wt.%, line 1 of 3 (±)): 0 number; Number of examinees who exhibited ±, +, or ++ reactivity 5th (3 wt.%, line 2 of 3 (+)): 0 number; Number of examinees who exhibited ±, +, or ++ reactivity 5th (3 wt.%, line 3 of 3 (++)): 0 number; Number of examinees who exhibited ±, +, or ++ reactivity 6th (3 wt.%, line 1 of 3 (±)): 0 number; Number of examinees who exhibited ±, +, or ++ reactivity 6th (3 wt.%, line 2 of 3 (+)): 0 number; Number of examinees who exhibited ±, +, or ++ reactivity 6th (3 wt.%, line 3 of 3 (++)): 0 number; Number of examinees who exhibited ±, +, or ++ reactivity 7th (3 wt.%, line 1 of 3 (±)): 0 number; Number of examinees who exhibited ±, +, or ++ reactivity 7th (3 wt.%, line 2 of 3 (+)): 0 number; Number of examinees who exhibited ±, +, or ++ reactivity 7th (3 wt.%, line 3 of 3 (++)): 0 number; Number of examinees who exhibited ±, +, or ++ reactivity 8th (3 wt.%, line 1 of 3 (±)): 0 number; Number of examinees who exhibited ±, +, or ++ reactivity 8th (3 wt.%, line 2 of 3 (+)): 0 number; Number of examinees who exhibited ±, +, or ++ reactivity 8th (3 wt.%, line 3 of 3 (++)): 0 number; Number of examinees who exhibited ±, +, or ++ reactivity 9th (3 wt.%, line 1 of 3 (±)): 0 number; Number of examinees who exhibited ±, +, or ++ reactivity 9th (3 wt.%, line 2 of 3 (+)): 0 number; Number of examinees who exhibited ±, +, or ++ reactivity 9th (3 wt.%, line 3 of 3 (++)): 0 number
